# Laboratory results from ChEMBL document CHEMBL4725392, “Orally Bioavailable Small-Molecule CD73 Inhibitor (OP-5244) Reverses Immunosuppression through Blockade of Adenosine Production” (J Med Chem, 2020).
# Calls of active or inactive are those of the source. The rule behind the calls is not given here.
# Tests used:
# [1] = Clearance in dog at 0.2 mg/kg, iv; assay type: ADME, organism-based, Canis lupus familiaris; details: in vivo
# [2] = AUC in rat at 10 mg/kg, po; assay type: ADME, organism-based; design: dose 10 mg/kg; details: in vivo
# [3] = Cmax in rat at 10 mg/kg, po; assay type: ADME, organism-based; design: route oral, dose 10 mg/kg; details: in vivo
# [4] = AUC in cynomolgus monkey at 10 mg/kg, po; assay type: ADME, organism-based, Macaca fascicularis; design: dose 10 mg/kg; details: in vivo
# [5] = AUC in dog at 10 mg/kg, po; assay type: ADME, organism-based, Canis lupus familiaris; design: dose 10 mg/kg; details: in vivo
# 5'-nucleotidase [6] = biological target: T1, 5'-nucleotidase (Homo sapiens, UniProt P21589); test: Inhibition of CD73 in human NCI-H1568 cells assessed as reduction in AMP-induced ADO expression preincubated for 15 mins followed by AMP addition and measured after 1 hr by LC-MS/MS analysis; assay type: cell-based
# 5'-nucleotidase [7] = biological target: T1, 5'-nucleotidase; test: Inhibition of CD73 in human NCI-H1568 cells assessed as reduction in AMP-induced ADO expression preincubated for 15 mins followed by AMP addition and measured after 1 hr by LC-MS/MS analysis relative to control; assay type: cell-based
# Cytochrome P450 2C9 = Cytochrome P450 2C9 (Homo sapiens, UniProt P11712); test: Inhibition of CYP2C9 (unknown origin); assay type: ADME
# 5'-nucleotidase [8] = biological target: T2, 5'-nucleotidase (Mus musculus, UniProt Q61503); test: Inhibition of CD73 in mouse EMT6 cells assessed as reduction in AMP-induced ADO expression preincubated for 15 mins followed by AMP addition and measured after 1 hr by LC-MS/MS analysis; assay type: cell-based
# T2 sequence (Q61503 whole entry): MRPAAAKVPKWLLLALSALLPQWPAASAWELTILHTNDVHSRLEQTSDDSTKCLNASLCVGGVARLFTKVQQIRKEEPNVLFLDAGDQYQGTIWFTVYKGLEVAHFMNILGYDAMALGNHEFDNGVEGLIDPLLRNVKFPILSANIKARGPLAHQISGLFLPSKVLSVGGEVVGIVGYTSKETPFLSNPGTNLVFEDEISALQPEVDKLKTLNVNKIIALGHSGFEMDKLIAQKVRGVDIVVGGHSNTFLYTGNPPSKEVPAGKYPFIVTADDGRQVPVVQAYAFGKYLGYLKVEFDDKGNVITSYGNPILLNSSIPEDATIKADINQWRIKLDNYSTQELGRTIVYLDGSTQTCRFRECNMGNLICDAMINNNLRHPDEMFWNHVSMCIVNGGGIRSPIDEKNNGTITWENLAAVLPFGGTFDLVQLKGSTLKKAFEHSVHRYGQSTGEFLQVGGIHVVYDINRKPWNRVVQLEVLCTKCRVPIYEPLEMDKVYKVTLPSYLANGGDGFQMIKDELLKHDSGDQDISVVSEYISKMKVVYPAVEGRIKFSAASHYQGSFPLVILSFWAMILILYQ
# 5'-nucleotidase [9] = biological target: T1, 5'-nucleotidase; test: Inhibition of CD73 in CD3/CD28/CD2 activated human CD8+ T-cells assessed as increase in TNFalpha protein expression at 4.1 to 1000 nM preincubated for 15 mins followed by AMP addition and measured after 96 hr by ELISA; assay type: tissue-based; details: CD8-positive T cell, dose nM 4.1-1000, time 15.0 min
# [10] = Volume of distribution at steady state in rat at 0.2 mg/kg, iv; assay type: ADME, organism-based; details: in vivo, read-out: Vdss
# [11] = Clearance in cynomolgus monkey at 0.2 mg/kg, iv; assay type: ADME, organism-based, Macaca fascicularis; details: in vivo
# [12] = Volume of distribution at steady state in dog at 0.2 mg/kg, iv; assay type: ADME, organism-based, Canis lupus familiaris; details: in vivo, read-out: Vdss
# Cytochrome P450 2C8 = biological target: T3, Cytochrome P450 2C8 (Homo sapiens, UniProt P10632); test: Inhibition of CYP2C8 (unknown origin); assay type: ADME
# T3 sequence (P10632 whole entry): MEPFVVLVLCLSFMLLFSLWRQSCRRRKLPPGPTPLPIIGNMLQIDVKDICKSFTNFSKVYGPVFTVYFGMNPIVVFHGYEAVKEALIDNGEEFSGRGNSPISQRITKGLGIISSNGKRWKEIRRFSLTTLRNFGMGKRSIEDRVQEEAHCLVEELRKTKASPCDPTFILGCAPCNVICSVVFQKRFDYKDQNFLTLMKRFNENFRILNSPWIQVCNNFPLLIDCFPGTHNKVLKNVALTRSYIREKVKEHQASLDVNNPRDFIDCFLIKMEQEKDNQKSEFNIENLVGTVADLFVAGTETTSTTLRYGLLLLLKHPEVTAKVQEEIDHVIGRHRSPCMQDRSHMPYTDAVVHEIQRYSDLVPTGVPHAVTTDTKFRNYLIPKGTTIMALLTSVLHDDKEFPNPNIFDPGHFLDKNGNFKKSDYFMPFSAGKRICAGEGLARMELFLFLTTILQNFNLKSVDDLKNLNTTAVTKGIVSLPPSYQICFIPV
# [13] = AUC infinity in mouse at 200 mg/kg, po; assay type: ADME, organism-based; design: route oral, time infinity, dose 200 mg/kg; details: in vivo
# 5'-nucleotidase [14] = biological target: T1, 5'-nucleotidase; test: Inhibition of CD73 in human CD8+ T-cells assessed as reduction in AMP-induced ADO expression preincubated for 15 mins followed by AMP addition and measured after 1 hr by LC-MS/MS analysis; assay type: tissue-based, CD8-positive T cell
# [15] = AUC in dog at 0.2 mg/kg, iv; assay type: ADME, organism-based, Canis lupus familiaris; design: dose 0.2 mg/kg; details: in vivo
# EMT6 [16] = test: Antitumor activity against mouse EMT6 cells implanted in BALB/c mouse assessed as tumour growth inhibition at 15 mg/kg, sc and measured on day 13; assay type: functional, organism-based; details: time 13.0 day
# [17] = Volume of distribution at steady state in cynomolgus monkey at 0.2 mg/kg, iv; assay type: ADME, organism-based, Macaca fascicularis; details: in vivo, read-out: Vdss
# [18] = Terminal half life in cynomolgus monkey at 0.2 mg/kg, iv; assay type: ADME, organism-based, Macaca fascicularis; details: in vivo, read-out: beta t1/2 (converted)
# 5'-nucleotidase [19] = biological target: T1, 5'-nucleotidase; test: Inhibition of CD73 in human CD8+ T-cells assessed as reduction in AMP-induced ADO expression preincubated for 15 mins followed by AMP addition and measured after 1 hr by LC-MS/MS analysis relative to control; assay type: tissue-based; details: CD8-positive T cell
# 5'-nucleotidase [20] = biological target: T1, 5'-nucleotidase; test: Inhibition of human C-terminal His6-tagged CD73 expressed in CHO cells preincubated for 15 mins followed by AMP addition and measured after 10 mins by malachite green reagent based assay; assay type: cell-based
# Cytochrome P450 3A4 = Cytochrome P450 3A4 (Homo sapiens, UniProt P08684); test: Inhibition of CYP3A4 (unknown origin); assay type: ADME
# EMT6 [21] = test: Antitumor activity against mouse EMT6 cells implanted in BALB/c mouse assessed as decrease in ADO expression at 15 mg/kg, sc and measured on day 13 relative to control; assay type: functional; design: scale not given: the % may be the effect or the level left; details: time 13 day
# [22] = Cmax in dog at 10 mg/kg, po; assay type: ADME, organism-based, Canis lupus familiaris; design: route oral, dose 10 mg/kg; details: in vivo
# 5'-nucleotidase [23] = biological target: T1, 5'-nucleotidase; test: Inhibition of CD73 in CD3/CD28/CD2 activated human CD8+ T-cells assessed as increase in IFNgamma protein expression at 4.1 to 1000 nM preincubated for 15 mins followed by AMP addition and measured after 96 hr by ELISA; assay type: tissue-based; details: CD8-positive T cell, dose nM 4.1-1000, time 15.0 min
# E.G7-OVA [24] = test: Antitumour activity against mouse E.G7-OVA cells implanted in C57BL/6 mouse assessed as increase in percentage of CD8+ T cells in total CD45+ leukocytes at 150 mg/kg, po BID for 16 days; assay type: functional, organism-based; details: time 16.0 day
# E.G7-OVA [25] = test: Antitumour activity against mouse E.G7-OVA cells implanted in C57BL/6 mouse assessed as increase in CD8+/Treg ratio at 150 mg/kg, po BID for 16 days; assay type: functional, organism-based; details: time 16.0 day
# [26] = Terminal half life in dog at 0.2 mg/kg, iv; assay type: ADME, organism-based, Canis lupus familiaris; details: in vivo, read-out: beta t1/2 (converted)
# [27] = Clearance in rat at 0.2 mg/kg, iv; assay type: ADME, organism-based; details: in vivo
# [28] = Cmax in mouse at 200 mg/kg, po; assay type: ADME, organism-based; design: route oral, dose 200 mg/kg; details: in vivo
# [29] = biological target: T4, 5'-nucleotidase (Mus musculus) (UniProt Q61503); test: Inhibition of CD73 in mouse EMT6 cells assessed as reduction in AMP-induced ADO expression preincubated for 15 mins followed by AMP addition and measured after 1 hr by LC-MS/MS analysis relative to control; assay type: cell-based
# T4 sequence (whole entry): T2 sequence (Q61503 whole entry)
# 5'-nucleotidase [30] = biological target: T1, 5'-nucleotidase; test: Inhibition of CD73 in CD3/CD28/CD2 activated human CD8+ T-cells assessed as increase in T cell proliferation at 4.1 to 1000 nM preincubated for 15 mins followed by AMP addition and measured after 96 hr by flow cytometric analysis; assay type: tissue-based; details: CD8-positive T cell, dose nM 4.1-1000, time 15.0 min
# [31] = AUC in cynomolgus monkey at 0.2 mg/kg, iv; assay type: ADME, organism-based, Macaca fascicularis; design: dose 0.2 mg/kg; details: in vivo
# [32] = Cmax in cynomolgus monkey at 10 mg/kg, po; assay type: ADME, organism-based, Macaca fascicularis; design: route oral, dose 10 mg/kg; details: in vivo
# [33] = biological target: T4, 5'-nucleotidase (Mus musculus); test: Inhibition of CD73 in AMP-induced mouse E.G7-OVA cells incubated for 60 mins by Wachstein-Meisel lead phosphate method; assay type: cell-based; details: dose nM 10-100, time 60.0 min
# [34] = biological target: T4, 5'-nucleotidase (Mus musculus); test: Inhibition of CD73 in AMP-induced mouse E.G7-OVA cells at 10 to 100 nM incubated for 60 mins by Wachstein-Meisel lead phosphate method; assay type: cell-based; details: dose nM 10-100, time 60.0 min
# [35] = Terminal half life in mouse at 200 mg/kg, po; assay type: ADME, organism-based; details: in vivo, read-out: beta t1/2 (converted)
# [36] = Terminal half life in rat at 0.2 mg/kg, iv; assay type: ADME, organism-based; details: in vivo, read-out: beta t1/2 (converted)
# EMT6 [37] = test: Antitumor activity against mouse EMT6 cells implanted in BALB/c mouse assessed as decrease in ADO/AMP ratio at 15 mg/kg, sc and measured on day 13 relative to control; assay type: functional; design: scale not given: the % may be the effect or the level left; details: time 13 day
# [38] = AUC in rat at 0.2 mg/kg, iv; assay type: ADME, organism-based; design: dose 0.2 mg/kg; details: in vivo
# T1 sequence (P21589 whole entry): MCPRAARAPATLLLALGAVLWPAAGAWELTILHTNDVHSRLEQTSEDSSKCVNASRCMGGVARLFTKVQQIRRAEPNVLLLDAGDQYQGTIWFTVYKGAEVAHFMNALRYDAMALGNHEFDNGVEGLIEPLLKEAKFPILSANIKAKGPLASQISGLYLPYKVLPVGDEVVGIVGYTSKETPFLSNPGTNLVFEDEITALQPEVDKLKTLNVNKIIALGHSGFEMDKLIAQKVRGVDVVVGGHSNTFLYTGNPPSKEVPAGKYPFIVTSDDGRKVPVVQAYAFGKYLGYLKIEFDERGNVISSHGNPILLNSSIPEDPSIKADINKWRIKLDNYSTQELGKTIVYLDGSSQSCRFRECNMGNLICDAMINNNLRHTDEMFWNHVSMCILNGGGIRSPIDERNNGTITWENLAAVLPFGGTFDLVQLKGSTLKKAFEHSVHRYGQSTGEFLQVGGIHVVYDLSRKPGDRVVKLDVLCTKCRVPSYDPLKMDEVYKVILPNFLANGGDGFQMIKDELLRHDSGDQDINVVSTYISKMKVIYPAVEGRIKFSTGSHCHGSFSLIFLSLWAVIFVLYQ
# Sequence of Cytochrome P450 3A4 (P08684 whole entry): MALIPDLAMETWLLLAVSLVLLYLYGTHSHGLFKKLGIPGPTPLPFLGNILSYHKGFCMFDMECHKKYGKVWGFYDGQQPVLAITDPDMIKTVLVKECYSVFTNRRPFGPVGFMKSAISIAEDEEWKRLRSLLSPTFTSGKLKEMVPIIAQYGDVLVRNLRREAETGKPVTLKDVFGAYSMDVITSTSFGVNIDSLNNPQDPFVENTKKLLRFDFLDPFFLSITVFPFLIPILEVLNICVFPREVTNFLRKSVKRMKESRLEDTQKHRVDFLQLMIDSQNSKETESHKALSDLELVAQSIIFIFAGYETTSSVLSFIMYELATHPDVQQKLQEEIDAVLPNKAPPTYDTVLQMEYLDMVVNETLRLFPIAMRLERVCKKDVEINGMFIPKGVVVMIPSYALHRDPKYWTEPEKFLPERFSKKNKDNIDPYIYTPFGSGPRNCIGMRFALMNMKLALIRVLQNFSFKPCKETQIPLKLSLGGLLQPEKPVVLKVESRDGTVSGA
# Sequence of Cytochrome P450 2C9 (P11712 whole entry): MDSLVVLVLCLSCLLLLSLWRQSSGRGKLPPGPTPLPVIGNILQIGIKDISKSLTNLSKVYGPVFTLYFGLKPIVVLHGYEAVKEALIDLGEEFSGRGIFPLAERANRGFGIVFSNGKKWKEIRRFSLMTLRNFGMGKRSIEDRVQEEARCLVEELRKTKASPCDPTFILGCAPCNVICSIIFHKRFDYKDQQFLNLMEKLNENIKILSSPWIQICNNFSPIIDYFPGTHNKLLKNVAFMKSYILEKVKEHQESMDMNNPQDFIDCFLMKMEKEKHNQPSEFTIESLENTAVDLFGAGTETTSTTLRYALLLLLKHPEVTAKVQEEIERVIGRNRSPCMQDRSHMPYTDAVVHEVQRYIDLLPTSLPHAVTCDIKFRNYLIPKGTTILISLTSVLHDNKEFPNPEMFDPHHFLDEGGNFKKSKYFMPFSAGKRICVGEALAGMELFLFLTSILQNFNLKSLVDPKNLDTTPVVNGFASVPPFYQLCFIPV
smiles,measurement,setting,value
COC[C@](CO)(OC[C@H]1O[C@@H](n2ncc3c(NC4CCCC4)nc(Cl)nc32)[C@H](O)[C@@H]1O)P(=O)(O)O,clearance,[1],20.3 mL/min/kg
same,AUC,[2],1.96 µM·h
same,Cmax,[3],820 nM
same,AUC,[4],14.2 µM·h
same,AUC,[5],1.75 µM·h
same,EC50,5'-nucleotidase [6],0.79 nM
same,inhibition,5'-nucleotidase [7],100%
same,IC50,Cytochrome P450 2C9,> 20000 nM
same,EC50,5'-nucleotidase [8],14 nM
same,inhibition,5'-nucleotidase [9],Active
same,Vd,[10],0.22 L/kg
same,clearance,[11],0.833 mL/min/kg
same,Vd,[12],0.29 L/kg
same,IC50,Cytochrome P450 2C8,> 20000 nM
same,AUC(0-inf),[13],45.1 µM·h
same,EC50,5'-nucleotidase [14],0.22 nM
same,AUC,[15],0.31 µM·h
same,Activity,EMT6 [16],Active
same,Vd,[17],0.1 L/kg
same,half-life,[18],4.6 h
same,inhibition,5'-nucleotidase [19],100%
same,IC50,5'-nucleotidase [20],0.25 nM
same,IC50,Cytochrome P450 3A4,> 20000 nM
same,Activity,EMT6 [21],100%
same,Cmax,[22],1250 nM
same,inhibition,5'-nucleotidase [23],Active
same,Activity,E.G7-OVA [24],Active
same,Activity,E.G7-OVA [25],Active
same,half-life,[26],0.82 h
same,clearance,[27],3 mL/min/kg
same,Cmax,[28],42200 nM
same,inhibition,[29],100%
same,inhibition,5'-nucleotidase [30],Active
same,AUC,[31],7.72 µM·h
same,Cmax,[32],1720 nM
same,inhibition,[33],Dose-dependent effect
same,inhibition,[34],Active
same,half-life,[35],3.3 h
same,half-life,[36],8.5 h
same,Activity,EMT6 [37],95%
same,AUC,[38],2.11 µM·h
